Reference: PMC4649711, “In1-ghrelin splicing variant is overexpressed in pituitary adenomas and increases their aggressive features” (Scientific Reports, 2015)
Entries after “also recorded” stand apart in the source; their conditions may differ.

What was measured:
NFPAs = test: cell viability of NFPA primary cultures, peptide treatment; assay type: cell-based, human; conditions: 100 nM, alamar-blue, n = 3–15
Description: (§1) Pituitary adenoma specimens were dispersed into single cells by enzymatic and mechanical disruption and cultured onto tissue culture plates in serum containing medium, as previously described. Briefly, pituitary samples were resected by endoscopic transsphenoidal surgery and transferred to sterile cold (4°C) culture medium (S-MEM, Gibco, Madrid, Spain) supplemented with 0.1% BSA, 0.01% L-glutamine, 1% antibiotic-antimycotic solution, and 2.5% HEPES. Samples were minced under sterile conditions into 1–2 mm^3 pieces. Some pieces were stored at −80°C for posterior RNA isolation and, when possible, the remaining tissue samples were washed and incubated in 30 mL S-MEM medium supplemented 0.3% trypsin (Beckson, Dickinson and Company, Sparks, MD, USA) in a spinner flask (Bellco Glass, Vineland, NJ, USA) for 2 h of gentle shaking at 37°C and then, incubation was continued for another 5 min in presence of 1 mg of DNAse I (Roche, Mannheim, Germany). Dispersed cells were decanted by centrifugation and then, by repeated aspiration into a smoothtipped glass Pasteur pipette. […]
(§2) As previously reported, cell viability was estimated using alamar-blue reagent (10,000 cells/well-plate; Biosource International, Camarillo, CA, USA)[30][50][52]. […] Reduction of alamar-blue reagent was quantified exciting at 560 nm and reading at 590 nm using the FlexStation III system (Molecular Devices, Sunnyvale, CA, USA). […]

[1] = test system: GHSR-lacking cells (e.g. prostate cell lines); conditions: cited from earlier work
[2] = test system: GH-omas (tumoral pituitary cells); test: free cytosolic calcium kinetics ([Ca^2+]i), GH-oma cells; assay type: cell-based, human
Description: as §1
(§3) As previously reported, changes in [Ca^2+]i in single cells were measured using fura-2AM (50,000 cells/coverslip; Molecular Probes, Eugene, OR)[23][30]. […] Cells were examined for changes in [Ca^2+]i after the appropriate treatment (native ghrelin, In1-19 or In1-40) using a 40× objective with Immersion Oil Type NF (Nikon, Tokyo, Japan) while exposed to alternating 340–380 nm light beams, and the intensity of light emission at 505 nm was measured every 5 seconds using MetaFluor Software (Imaging Corp., West Chester, PA, USA). […] Changes in [Ca^2+]i in CHO-K1 cell line expressing recombinant GHSR1a or GHSR1b receptor were measured using Calcium 4 Explorer Kit (Molecular Devices, Sunnyvale, CA, USA). […] Fluorescent signals were then monitored using the FLIPR Tetra (Molecular Devices, Sunnyvale, CA, USA) during which cells were stimulated with compounds. Dose-response curves were analyzed using GraphPad Prism v5.04 (La Jolla, CA, USA).

[3] = test system: other endocrine cell types (e.g. pancreatic cells); design: method as in PMID 17068144; conditions: cited from earlier work
GH-omas [4] = test: GH secretion from GH-oma primary cultures; assay type: cell-based, human; conditions: 100 nM; 4 h and 24 h; ELISA; % of vehicle; n = 3–7
Description: (§4) Pituitary adenoma specimens were dispersed into single cells by enzymatic and mechanical disruption and cultured onto tissue culture plates in serum containing medium, as previously described. Briefly, pituitary samples were resected by endoscopic transsphenoidal surgery and transferred to sterile cold (4°C) culture medium (S-MEM, Gibco, Madrid, Spain) supplemented with 0.1% BSA, 0.01% L-glutamine, 1% antibiotic-antimycotic solution, and 2.5% HEPES. Samples were minced under sterile conditions into 1–2 mm^3 pieces. […]
(§5) To examine the effects of ghrelin system components (4- and/or 24 h-incubation) on pituitary hormone release from primary pituitary adenoma and/or AtT-20 cell line, 100,000–200,000 cell/well were used. As previously reported, hormone concentrations were measured in the culture media derived from human samples according to the pituitary adenoma type using commercial ELISAs [growth hormone, GH; adrenocorticotropin, ACTH; and prolactin, PRL (reference numbers: EIA-3552, EIA-3647 and EIA-1291, respectively; DRG, Mountainside, NJ, USA)] following the manufacturer's instructions. […]

ACTH-omas = test: ACTH secretion from ACTH-oma primary cultures; assay type: cell-based, human; conditions: 100 nM; 24 h; ELISA; % of vehicle; n = 3–9
Description: as §4, §5

GH-omas [5] = test: cell viability of GH-oma primary cultures, peptide treatment; assay type: cell-based, human; conditions: 100 nM, alamar-blue
Description: Pituitary adenoma specimens were dispersed into single cells by enzymatic and mechanical disruption and cultured onto tissue culture plates in serum containing medium, as previously described. Briefly, pituitary samples were resected by endoscopic transsphenoidal surgery and transferred to sterile cold (4°C) culture medium (S-MEM, Gibco, Madrid, Spain) supplemented with 0.1% BSA, 0.01% L-glutamine, 1% antibiotic-antimycotic solution, and 2.5% HEPES. Samples were minced under sterile conditions into 1–2 mm^3 pieces. Some pieces were stored at −80°C for posterior RNA isolation and, when possible, the remaining tissue samples were washed and incubated in 30 mL S-MEM medium supplemented 0.3% trypsin (Beckson, Dickinson and Company, Sparks, MD, USA) in a spinner flask (Bellco Glass, Vineland, NJ, USA) for 2 h of gentle shaking at 37°C and then, incubation was continued for another 5 min in presence of 1 mg of DNAse I (Roche, Mannheim, Germany). Dispersed cells were decanted by centrifugation and then, by repeated aspiration into a smoothtipped glass Pasteur pipette. Cells suspensions were washed once in 4.5 g/L glucose containing DMEM medium (Gibco, Madrid, Spain) supplemented with 0.1% BSA, 0.01% L-glutamine, 1% antibiotic-antimycotic solution, and 2.5% HEPES. Cell number and viability was estimated by the Trypan blue exclusion test in Neubauer chamber, where viability was always 90–100%.
As previously reported, cell viability was estimated using alamar-blue reagent (10,000 cells/well-plate; Biosource International, Camarillo, CA, USA)[30][50][52]. Briefly, cells were serum-starved for 12–16 h before the measurements and treated with serum-free medium containing 10% alamar-blue for 3 h. Reduction of alamar-blue reagent was quantified exciting at 560 nm and reading at 590 nm using the FlexStation III system (Molecular Devices, Sunnyvale, CA, USA). Subsequently, media was replaced by serum-containing alamar-blue free medium and incubated for additional 24–72 h, measuring the alamar-blue reduction every 24 h. […]

[6] = test system: PRL-omas (tumoral pituitary cells); test: free cytosolic calcium kinetics ([Ca^2+]i), PRL-oma cells; assay type: cell-based, human; conditions: fura-2AM
Description: as §4
as §3, with “Dose-response curves were analyzed using GraphPad Prism v5.04 (La Jolla, CA, USA).” left out

PRL-omas [7] = conditions: previous studies; cited from earlier work
Description: Conversely, In1-ghrelin peptides only elicited [Ca^2+]i responses in a negligible percentage of PRL-oma cells, which is in accordance with the lack of effect of these peptides in the modulation of PRL release. However, In1-40 but not In1-19 p ...

pituitary adenoma cells = test: cell viability in all pituitary adenoma subtypes, peptide treatment; assay type: cell-based, human; conditions: 100 nM, 24-, 48- and/or 72-h, alamar-blue
Description: as §1, §2

PRL-omas [8] = test: cell viability of PRL-oma primary cultures, peptide treatment; assay type: cell-based, human; conditions: 100 nM, time not specified in text (24-, 48- and/or 72-h), alamar-blue, n = 2–3
Description: as §1, §2

**Q.** Which results are given for `CCCCCCCC(=O)OC[C@H](NC(=O)[C@H](CO)NC(=O)CN)C(=O)N[C@@H](Cc1ccccc1)C(=O)N[C@@H](CC(C)C)C(=O)N[C@@H](CO)C(=O)N1CCC[C@H]1C(=O)N[C@@H](CCC(=O)O)C(=O)N[C@@H](Cc1c[nH]cn1)C(=O)N[C@@H](CCC(N)=O)C(=O)N[C@@H](CCCNC(=N)N)C(=O)N[C@H](C(=O)N[C@@H](CCC(N)=O)C(=O)N[C@@H](CCC(N)=O)C(=O)N[C@@H](CCCNC(=N)N)C(=O)N[C@@H](CCCCN)C(=O)N[C@@H](CCC(=O)O)C(=O)N[C@@H](CO)C(=O)N[C@@H](CCCCN)C(=O)N[C@@H](CCCCN)C(=O)N1CCC[C@H]1C(=O)N1CCC[C@H]1C(=O)N[C@@H](C)C(=O)N[C@@H](CCCCN)C(=O)N[C@@H](CC(C)C)C(=O)N[C@@H](CCC(N)=O)C(=O)N1CCC[C@H]1C(=O)N[C@@H](CCCNC(=N)N)C(=O)O)C(C)C` [AG]?
**A.** cell viability (NFPAs; 24 h): reaching significant levels; cell viability (NFPAs; time not specified in text (24-, 48- and/or 72-h)): modest but consistent increments in cell viability; also recorded: increased NFPA cells viability; responses in GHSR-lacking cells [1]: have been found in GHSR-lacking cells; [Ca^2+]i response (in words) ([2]; fura-2AM): doubling the [Ca^2+]i levels; also recorded: increased [Ca^2+]i; % cell resp. ([2]; proportion of responsive cells, fura-2AM single-cell imaging): 74%; # samples ([2]; responsive/tested samples, fura-2AM single-cell imaging, 1500 / 983 / 520 cells analyzed for AG / In1-19 / In1-40, peptides 100 nM (abstract)): 27/27; apoptotic rate [3]: did not affect the apoptotic rate; GH secretion (GH-omas [4]): similarly and significantly, increased GH secretion; also recorded: promoted GH secretion; ACTH secretion (ACTH-omas): significantly increased ACTH secretion; cell viability (GH-omas [5]; 48 h, n = 5–17): significantly increased; cell viability (GH-omas [5]; 72 h, n = 5–17): significantly increased; cell viability (GH-omas [5]; time not given): modestly increased GH-oma cell viability; [Ca^2+]i response (in words) [6]: only a low proportion of these pituitary adenoma cells altered their [Ca^2+]i; # samples ([6]; responsive/tested samples, 217 / 160 / 88 cells analyzed for AG / In1-19 / In1-40, peptides 100 nM (abstract)): 2/6; PRL secretion (PRL-omas [7]): increases PRL secretion; cell viability (pituitary adenoma cells): increased cell viability in vitro in all pituitary adenoma subtypes; cell viability (PRL-omas [8]): significant increases
